Source: ChEMBL document CHEMBL1146575, “Imidazole alkaloids from Lepidium meyenii” (2003)

Columns and labels:
Format in all cases: functional
[1] = Cytotoxicity against human FDIGROV cells; conditions: read-out: ED50 (the source's name)
HT-29 = assay: Cytotoxicity against human HT-29 cells; conditions: read-out: ED50 (the source's name)
PC-3 = assay: Cytotoxicity against human PC3 cells; conditions: read-out: ED50 (the source's name)
UMUC3 = assay: Cytotoxicity against human UM-UC-3 cells; conditions: read-out: ED50 (the source's name)
[2] = Cytotoxicity against human A4982LM cells; conditions: read-out: ED50 (the source's name)
A549 = assay: Cytotoxicity against human A549 cells; conditions: read-out: ED50 (the source's name)
MIA PaCa-2 = assay: Cytotoxicity against human MIAPaCa2 cells; conditions: read-out: ED50 (the source's name)
[3] = Cytotoxicity against human MDA231 cells; conditions: MDA-MB-231, read-out: ED50 (the source's name)

Row | Structure (SMILES) | EC50 [1] [µg/mL] | EC50 (HT-29) [µg/mL] | EC50 (PC-3) [µg/mL] | EC50 (UMUC3) [µg/mL] | EC50 [2] [µg/mL] | EC50 (A549) [µg/mL] | EC50 (MIA PaCa-2) [µg/mL] | EC50 [3] [µg/mL]
1 | Cc1c(C)[n+](Cc2ccccc2)cn1Cc1ccccc1.[Cl-] [LEPIDILINE A] | 7.39 | > 10 | > 10 | > 10 | > 10 | > 10 | > 10 | > 10
2 | Cc1c(C)[n+](Cc2ccccc2)c(C)n1Cc1ccccc1.[Cl-] [LEPIDILINE B] | 5.26 | > 10 | > 10 | 6.47 | > 10 | > 10 | 1.38 | 1.66
